Assay results: patent US20080194462A1, “Methods and Compositions for Treatment of Autoimmune Diseases” (Peptimmune, Inc., priority 2004, published 2008)

How the values were obtained:
[1] = system: T cells; details: cited from earlier work
[2] = system: Non-obese diabetic (NOD) mouse; experiment: Treatment of NOD mice, development of diabetes; type: in vivo; details: 10 μg injected three times a week
Experimental: NOD mice are obtained from Jackson Laboratories, Bar Harbor, Me., and are used as an experimental system (Shi et al. (2001) Proc. Natl. Acad. Sci. USA 98: 6777-6782). These mice begin to develop diabetes at about 13-15 weeks and data are obtained after about 30 weeks to obtain data, such as a frequency of symptoms for comparison of treated and untreated groups of mice. NOD mice were treated herein with Copaxone®, and no difference was found between the untreated animals and animals treated with Copaxone®. In the experiment, 10 μg of Copaxone® was injected into mice three times a week (equivalent to the human dose on a weight ratio basis. A higher dose, 33 μg Copaxone®/mouse three times a week, is also employed. These experiments test the hypothesis that Copaxone® would be ineffective.

Substance: Glatiramer acetate
- proportion of an individual's T cells activated ([1]; HLA-DR restricted): 15-20%
- T cell response generated through HLA-DQ molecules [1]: little response
- difference between untreated and treated NOD mice (diabetes) [2]: no difference
